Test system: skin of the forearms of 10 panelists (stratum corneum)
Experiment: Testing by Conductance Measurement (rate of skin conductance change)
Type: in vivo, human
Settings: for conductance evaluation, 30 minutes / conductance evaluation, 60 minutes / conductance evaluation, 120 minutes: Table 1, 10% aqueous solution; for conductance evaluation, 30 minutes: 30 minutes after application; for conductance evaluation, 60 minutes: 60 minutes after application; for conductance evaluation, 120 minutes: 120 minutes after application
Protocol: “Testing by Conductance Measurement” The skin conductance was measured before the application and after 30 minutes, 60 minutes, and 120 minutes of the application on the forearms of 10 panelists. From the rate of change, the moisturizing effect was evaluated. The rate of change of the skin conductance is determined by the following equation (III), and the influences on the water-absorbing property and the moisture-retention ability of the stratum corneum can be investigated. If the rate of change is small, it can be estimated that there is an increase in the water content in the stratum corneum and that the moisturizing effect is high. Rate of conductance change=(conductance before application)/(conductance after application) Equation (III) The evaluation criteria for the “Testing by Conductance Measurement” are as follows. ⊚: Average of the rate of conductance change of 10 panelists: 0 or higher and lower than 0.1 ◯: Average of the rate of conductance change of 10 panelists: 0.1 or higher and lower than 0.2 Δ: Average of the rate of conductance change of 10 panelists: 0.2 or higher and lower than 0.5 X: Average of the rate of conductance change of 10 panelists: 0.5 or higher Initially, the present inventors evaluated the conductance, based on the above-described criteria, for respective 10% aqueous solutions of various moisturizers.

OCC(O)CO [glycerin]
conductance evaluation, 30 minutes: ⊚ (Average of the rate of conductance change of 10 panelists: 0 or higher and lower than 0.1) | conductance evaluation, 60 minutes: ◯ (Average of the rate of conductance change of 10 panelists: 0.1 or higher and lower than 0.2) | conductance evaluation, 120 minutes: ◯ (Average of the rate of conductance change of 10 panelists: 0.1 or higher and lower than 0.2) | Conductance measurement evaluation (Table 7, 5 % alone in ion exchanged water 95 %): Δ (Average of the rate of conductance change of 10 panelists: 0.2 or higher and lower than 0.5)

CC(O)CCO (stereo not shown) [1,3-butylene glycol]
conductance evaluation, 30 minutes: Δ (Average of the rate of conductance change of 10 panelists: 0.2 or higher and lower than 0.5) | conductance evaluation, 60 minutes: Δ (Average of the rate of conductance change of 10 panelists: 0.2 or higher and lower than 0.5) | conductance evaluation, 120 minutes: Δ (Average of the rate of conductance change of 10 panelists: 0.2 or higher and lower than 0.5)
